Earlier results in paper PMC4026281 (Journal of neurochemistry, 2012).

System: rat α6/3β2 chimeric nAChRs
Conditions: cited from earlier work

α-conotoxin MII [α-CtxMII]
t1/2 of recovery from α-CtxMII inhibition, rat α6/3β2 chimeric nAChRs: > 20 min
